The text below walks through data of ChEMBL document CHEMBL3526096, “Species differences in biliary clearance and possible relevance of hepatic uptake and efflux transporters involvement” (Drug Metab Dispos, 2013).

Data set [1] concerns Rattus norvegicus. Nature of the data set: Unbound biliary clearance in Wistar rat at 10 mg/kg, iv. The format is ADME, organism-based, Bile. Also on record: dose 10 mg/kg, route intravenous. Conditions: in vivo.
Data set [2] relates to Canis familiaris. The experiment in a line: Unbound biliary clearance in iv dosed dog. The data set is classed as ADME, organism-based, Canis lupus familiaris, Bile. The settings on record: in vivo.
The test system of data set [3] is Homo sapiens. Nature of the data set: Total biliary clearance in iv dosed human after 20 hrs by duodenal aspiration method. The format is ADME, organism-based, Bile. Conditions: in vivo.
Data set [4] relates to Homo sapiens. The experiment in a line: Unbound biliary clearance in iv dosed human after 20 hrs. The data set is classed as ADME, organism-based, Bile. The settings on record: in vivo.
The nature of data set [5]: Drug excretion in iv dosed human assessed as compound excreted into bile after 20 hrs. The data set is classed as ADME, organism-based. The settings on record: read-out: Drug excretion.
Data set [6] can be described thus: Drug excretion in iv dosed dog assessed as compound excreted into bile. The data set is classed as ADME, organism-based, Canis lupus familiaris. The settings on record: read-out: Drug excretion.
Data set [7] has as its system Rattus norvegicus. Nature of the data set: Total biliary clearance in Wistar rat at 10 mg/kg, iv. Conditions: in vivo. Also on record: dose 10 mg/kg, route intravenous. The format is ADME, organism-based, Bile.
The test system of data set [8] is Canis familiaris. The experiment in a line: Total biliary clearance in iv dosed dog. The format is ADME, organism-based, Canis lupus familiaris, Bile. The settings on record: in vivo.
A short description of data set [9]: Drug excretion in Wistar rat assessed as compound excreted into bile at 10 mg/kg, iv. The format is ADME, organism-based. Also on record: dose 10 mg/kg, route intravenous. Conditions: read-out: Drug excretion.
A short description of data set [10]: Drug excretion in iv dosed Wistar rat assessed as compound excreted into bile. The settings on record: read-out: Drug excretion. The format is ADME, organism-based.
Data set [11] is described as follows: Drug excretion in human assessed as compound excreted into bile at 60 mg, po after 12 hrs by fecal extraction method.
A short description of data set [12]: Drug excretion in iv dosed rat assessed as compound excreted into bile. The data set is classed as ADME, organism-based. The settings on record: read-out: Drug excretion.
Data set [13] in a line: Drug excretion in po dosed human assessed as compound excreted into bile after 24 hrs by T-tube method. The data set is classed as ADME, organism-based. Conditions: read-out: Drug excretion.
For data set [14], the system named is Rattus norvegicus. The experiment in a line: Unbound biliary clearance in iv dosed rat. The data set is classed as ADME, organism-based, Bile. The settings on record: in vivo.
Data set [15] deals with Rattus norvegicus. The experiment in a line: Total biliary clearance in iv dosed rat. Conditions: in vivo. The data set is classed as ADME, organism-based, Bile.
The test system of data set [16] is Homo sapiens. The experiment in a line: Unbound biliary clearance in iv dosed human after 24 hrs by T-tube method. The format is ADME, organism-based, Bile. Conditions: in vivo.
Data set [17] can be described thus: Drug excretion in iv dosed human assessed as compound excreted into bile after 24 hrs by T-tube method. The format is ADME, organism-based. Conditions: read-out: Drug excretion.
Data set [18] deals with Homo sapiens. The experiment in a line: Total biliary clearance in iv dosed human after 24 hrs by T-tube method. The format is ADME, organism-based, Bile. The settings on record: in vivo.
A short description of data set [19]: Drug excretion in Sprague-Dawley rat assessed as compound excreted into bile at 300 mg/kg, iv. The format is ADME, organism-based. Further details: dose 300 mg/kg, route intravenous. Conditions: read-out: Drug excretion.
The subject of data set [20] is Homo sapiens. Nature of the data set: Unbound biliary clearance in human at 1 gm, iv after 8 hrs by T-tube method. The format is ADME, organism-based, Bile. The settings on record: in vivo.
Data set [21] in a line: Drug excretion in human assessed as compound excreted into bile at 1 gm, iv after 8 hrs by T-tube method. The format is ADME, organism-based. Conditions: read-out: Drug excretion.
Data set [22] relates to Rattus norvegicus. Nature of the data set: Total biliary clearance in Sprague-Dawley rat at 300 mg/kg, iv. The format is ADME, organism-based, Bile. Also on record: dose 300 mg/kg, route intravenous. Conditions: in vivo.
For data set [23], the system named is Homo sapiens. Nature of the data set: Total biliary clearance in human at 1 gm, iv after 8 hrs by T-tube method. The format is ADME, organism-based, Bile. The settings on record: in vivo.
Data set [24] has as its system Rattus norvegicus. The experiment in a line: Unbound biliary clearance in Sprague-Dawley rat at 300 mg/kg, iv. The data set is classed as ADME, organism-based, Bile. Also on record: dose 300 mg/kg, route intravenous. The settings on record: in vivo.
Data set [25] can be described thus: Drug excretion in human assessed as compound excreted into bile. The format is ADME. The settings on record: read-out: Drug excretion.
A short description of data set [26]: Drug excretion in human assessed as compound excreted into bile at 50 mg, iv after 24 hrs by T-tube method. The format is ADME, organism-based. The settings on record: read-out: Drug excretion.
The subject of data set [27] is Homo sapiens. Nature of the data set: Total biliary clearance in iv dosed human after 72 hrs by T-tube method. The format is ADME, organism-based, Bile. Conditions: in vivo.
For data set [28], the system named is Homo sapiens. The experiment in a line: Unbound biliary clearance in iv dosed human after 72 hrs by T-tube method. The format is ADME, organism-based, Bile. The settings on record: in vivo.
Data set [29] relates to Rattus norvegicus. The experiment in a line: Total biliary clearance in iv dosed Sprague-Dawley rat. The settings on record: in vivo. The format is ADME, organism-based, Bile.
Data set [30] can be described thus: Drug excretion in iv dosed Sprague-Dawley rat assessed as compound excreted into bile. Conditions: read-out: Drug excretion. The format is ADME, organism-based.
Data set [31] can be described thus: Drug excretion in iv dosed human assessed as compound excreted into bile after 72 hrs by T-tube method. The data set is classed as ADME, organism-based. The settings on record: read-out: Drug excretion.
Data set [32] has as its system Rattus norvegicus. The experiment in a line: Unbound biliary clearance in iv dosed Sprague-Dawley rat. The data set is classed as ADME, organism-based, Bile. The settings on record: in vivo.

On to `CC[C@H]1OC(=O)[C@H](C)[C@@H](O[C@H]2C[C@@](C)(OC)[C@@H](O)[C@H](C)O2)[C@H](C)[C@@H](O[C@@H]2O[C@H](C)C[C@H](N(C)C)[C@H]2O)[C@](C)(O)C[C@@H](C)C(=O)[C@H](C)[C@@H](O)[C@]1(C)O` [ERYTHROMYCIN], for which the CL free with Rattus norvegicus [1] was 22.38 mL/min/kg; in the data set on Canis familiaris [2] it was 4.483 mL/min/kg; in the data set with Homo sapiens [4], 7.169 mL/min/kg. The values for the CL with Homo sapiens [3], in the data set with Rattus norvegicus [7] and in the data set with Canis familiaris [8] were 1.147 mL/min/kg, 17.4 mL/min/kg and 2.376 mL/min/kg, respectively. Further, the dose excreted at 20 h in [5] came to 13%. The results for the dose excreted in data set [6] and in [9] were 5% and 30%, respectively.

For the compound `CC(C)(C(=O)O)c1ccc(C(O)CCCN2CCC(C(O)(c3ccccc3)c3ccccc3)CC2)cc1` (centres undefined) [FEXOFENADINE], the dose excreted in data set [10] came out at 28%. The dose excreted at 12 h in data set [11] was 23%.

As to `CCC(=O)C(CC(C)N(C)C)(c1ccccc1)c1ccccc1` (centres undefined) [METHADONE], the dose excreted in data set [12] amounted to 9%. Besides, the dose excreted at 24 h in data set [13] amounted to 0.06%.

`CN(Cc1cnc2nc(N)nc(N)c2n1)c1ccc(C(=O)N[C@@H](CCC(=O)O)C(=O)O)cc1` [METHOTREXATE]: the CL free in the data set with Rattus norvegicus [14] turned out to be 12.47 mL/min/kg; in the data set on Canis familiaris [2], 0.344 mL/min/kg; with Homo sapiens [16], 1.108 mL/min/kg. The results for the CL with Rattus norvegicus [15], in the data set with Canis familiaris [8] and in the data set with Homo sapiens [18] were 9.6 mL/min/kg, 0.217 mL/min/kg and 0.048 mL/min/kg, respectively. Moreover, the dose excreted in data set [12] worked out at 64%. For the same compound, the dose excreted at 24 h in [17] turned out to be 10%.

For the compound `CO[C@@]1(NC(=O)C(C(=O)O)c2ccc(O)cc2)C(=O)N2C(C(=O)O)=C(CSc3nnnn3C)CO[C@@H]21` (some centres undefined) [MOXALACTAM], in data set [19], the dose excreted worked out at 25%. In addition, the figures for the CL free in the data set with Homo sapiens [20] and in the data set on Rattus norvegicus [24] were 0.008 mL/min/kg and 4.294 mL/min/kg, respectively. The dose excreted at 8 h in [21] is 0.5%. For the same compound, the CL stood at 2.19 mL/min/kg in the data set with Rattus norvegicus [22] and 0.003 mL/min/kg with Homo sapiens [23].

Regarding `N=C(N)N1CCC[C@@H](CNC(=O)C[C@H](NS(=O)(=O)c2ccc3ccccc3c2)C(=O)N(CC(=O)O)C2CC2)C1` [NAPSAGATRAN ANHYDROUS], the dose excreted in [12] came out at 61%; in data set [6], 97%; in data set [25], 60%.

As for `CC[C@H](C)C(=O)O[C@H]1C[C@H](O)C=C2C=C[C@H](C)[C@H](CC[C@@H](O)C[C@@H](O)CC(=O)O)[C@H]21` [PRAVASTATIN], the CL free came out at 78.57 mL/min/kg with Rattus norvegicus [14] and 6.21 mL/min/kg in the data set with Homo sapiens [16]. Besides, the CL in the data set with Rattus norvegicus [15] worked out at 27.5 mL/min/kg; in the data set on Homo sapiens [18] it was 3.105 mL/min/kg. The dose excreted in data set [12] is 40%. Moreover, the dose excreted at 24 h in [17] came to 23%.

Regarding `CNC(=C[N+](=O)[O-])NCCSCc1ccc(CN(C)C)o1` [RANITIDINE], the dose excreted at 24 h in [26] is 1.5%. The dose excreted in [12] turned out to be 5%.

With `CC[C@]1(O)C[C@H]2CN(CCc3c([nH]c4ccccc34)[C@@](C(=O)OC)(c3cc4c(cc3OC)N(C=O)[C@H]3[C@@](O)(C(=O)OC)[C@H](OC(C)=O)[C@]5(CC)C=CCN6CC[C@]43[C@@H]65)C2)C1` [VINCRISTINE], the CL with Homo sapiens [27] was 0.209 mL/min/kg; in the data set on Rattus norvegicus [29], 33.1 mL/min/kg. In addition, the CL free in the data set with Homo sapiens [28] turned out to be 0.523 mL/min/kg; in the data set with Rattus norvegicus [32], 84.87 mL/min/kg. In addition, the dose excreted in [30] was determined as 43%. In [31], the dose excreted at 72 h was found to be 10%.
